Source: US10314841B2, “Substituted pyrazoles as IRAK inhibitors” (Merck Patent GmbH, priority 2014, dated 2019)
Like-named read-outs stand apart in the source and are kept apart here.

Legend:
[1] = molecular target: T1, IRAK1 (His-TEV-IRAK1 (194-712)) (Homo sapiens, UniProt P51617); assay: IRAK1 enzymatic assay; type: biochemical; conditions: human recombinant His-TEV-IRAK1, ATP 1 μM, 3 hours at 30° C., FlashPlate
T1 construct: His-TEV-IRAK1 (194-712); His (N); TEV cleavage site (N)
Experimental: IRAK1 Enzymatic Assay IRAK1 is a human purified recombinant enzyme (His-TEV-IRAK1 (194-712)). In this assay, IRAK-1 hydrolyses ATP and autophosphorylates. Measurement of IRAK-1 inhibition was performed in streptavidin coated 384 well FlashPlate (PerkinElmer #SM[…]). His-TEV-IRAK-1 (15 ng/well), ATP (1 μ[…]]ATP 0.25 μCi/well) and compounds in DMSO (range of concentrations from 20 μM to 1 nM) or controls (2% DMSO) were incubated for 3 hours at 30° C. in assay buffer: Hepes pH7.0 50 mM, Fatty acid-free BSA 0.1%, Dithiothreitol DTT 2 mM, MgCl2 10 mM, EGTA 0.5 mM, Triton-X-100 0.01%. Kinase reaction was stopped by addition of EDTA. Supernatant was discarded, plates were washed three times with 150 mM NaCl and radioactivity was then measured in a Microbeta Trilux reader.

[2] = molecular target: T2, IRAK4 (His-TEV-IRAK4) (Homo sapiens, UniProt Q9NWZ3); assay: IRAK4 enzymatic assay; type: biochemical; conditions: human recombinant His-TEV-IRAK4, ATP 2 μM, STK1-biotin peptide 300 nM, 3 hours at 30° C., FlashPlate
T2 construct: His (N); TEV cleavage site (N)
T2 sequence (Q9NWZ3 1-460): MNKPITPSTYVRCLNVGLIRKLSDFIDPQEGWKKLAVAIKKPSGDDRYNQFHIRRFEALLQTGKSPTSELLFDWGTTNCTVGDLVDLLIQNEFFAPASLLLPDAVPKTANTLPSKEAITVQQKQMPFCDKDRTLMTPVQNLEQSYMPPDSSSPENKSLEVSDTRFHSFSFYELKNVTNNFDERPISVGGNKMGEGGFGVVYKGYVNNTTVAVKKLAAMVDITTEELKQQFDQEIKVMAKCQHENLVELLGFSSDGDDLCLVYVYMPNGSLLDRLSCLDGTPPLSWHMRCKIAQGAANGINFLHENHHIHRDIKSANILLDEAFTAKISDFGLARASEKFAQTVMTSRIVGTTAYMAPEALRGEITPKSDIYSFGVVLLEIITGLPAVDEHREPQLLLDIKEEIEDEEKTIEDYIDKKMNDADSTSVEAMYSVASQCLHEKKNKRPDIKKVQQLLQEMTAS
Experimental: IRAK4 Enzymatic Assay IRAK4 is a human purified recombinant enzyme (His-TEV-[…] (194-712). IRAK4 hydrolyses ATP, autophosphorylates and phosphorylates a Serine/Threonine generic peptidic substrate (STK: 61 ST1BLC from CisBio International based in Bagnols/Cèze FR). Measurement of IRAK-4 inhibition was performed in streptavidin coated 384 well FlashPlate (PerkinElmer #SM[…]). His-TEV-IRAK4 (20 ng/well), ATP (2 μM, [^33P]ATP 0.25 μCi/well), STK1-biotin peptide (300 nM) and compounds in DMSO (range of concentrations from 20 μM to 1 nM) or controls (2% DMSO) were incubated for 3 hours at 30° C. in assay buffer: Hepes pH7.0 50 mM, Fatty acid-free BSA 0.1%, Dithiothreitol DTT 2 mM, MgCl2 10 mM, EGTA 0.5 mM, Tween-20 0.01%, MnCl2 5 mM. Kinase reaction was stopped by addition of EDTA. Supernatant was discarded, plates were washed three times with 150 mM NaCl and radioactivity was then measured in a Microbeta Trilux reader.

[3] = system: TLR7 induced IL-6 secretion in human PBMC's; assay: TLR7 induced IL-6 in human PBMC's; type: cell-based; conditions: read-out: TLR7 induced IL-6 secretion in hPBMC's (IC50)
Experimental: TLR7 Induced IL-6 in Human PBMC's Human PBMC assay was used as one of the functional assays to monitor the activity of IRAK1 and IRAK4 small molecule inhibitors on TLR7 induced IL-6 secretion in human mononuclear cells (PBMC's). Human PBMCs were prepared from buffy coats (whole blood enriched with leukocytes and platelets) obtained from healthy volunteers used either fresh or frozen are plated in assay media (RPMI+2% P/S/L-glu+10% HI-FBS) and pre-treated with compounds in DMSO/media (range of concentrations from 25 uM to 0.4 nM) or controls (0.25% DMSO) for 30 minutes at 37° C. in assay media. Following pre-treatment with IRAK1 and IRAK4 inhibitors, PBMC's were stimulated with TLR7 specific ligand (2 uM) overnight (16-18 hrs) at 37° C. After incubation supernatant was transferred to 384 well PE AlphaPlate-384 (6005350) and IL-6 is quantified using Perkin Elmer IL-6 Alpha LISA kit (A[…]). Plates were read on an Envision® plate reader with Alpha Technology®.

[4] = human PBMC, TLR7 specific ligand 2 uM overnight, IL-6 Alpha LISA

T1 sequence (P51617 194-712): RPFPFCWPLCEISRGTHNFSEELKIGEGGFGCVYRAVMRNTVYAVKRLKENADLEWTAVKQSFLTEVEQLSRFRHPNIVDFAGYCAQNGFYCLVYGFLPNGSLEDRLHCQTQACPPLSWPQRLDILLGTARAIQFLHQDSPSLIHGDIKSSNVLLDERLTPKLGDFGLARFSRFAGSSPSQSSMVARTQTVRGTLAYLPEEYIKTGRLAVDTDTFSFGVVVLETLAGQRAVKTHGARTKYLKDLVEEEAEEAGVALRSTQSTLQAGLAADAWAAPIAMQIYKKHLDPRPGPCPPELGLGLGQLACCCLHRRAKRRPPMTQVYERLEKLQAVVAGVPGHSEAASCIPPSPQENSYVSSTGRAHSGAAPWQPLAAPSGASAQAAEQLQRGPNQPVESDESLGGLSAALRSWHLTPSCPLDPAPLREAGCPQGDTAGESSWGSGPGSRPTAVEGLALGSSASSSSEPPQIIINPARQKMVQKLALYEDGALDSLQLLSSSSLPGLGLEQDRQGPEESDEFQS

Row | Compound | IC50 [1] | IC50 [2] | IC50 [3, 4] | IC50 ([3]; Homo sapiens, PBMC)
1 | Cn1cc(-c2cccc(-c3ncc(-c4cnn(C5CCNCC5CO)c4)cn3)c2)cn1 (mixture of isomers) [Compound 26, [4-(4-{2-[3-(1-Methyl-1H-pyrazol-4-yl)-phenyl]-pyrimidin-5-yl}-pyrazol-1-yl)-piperidin-3-yl]-methanol] | 100 to 1000 nM | 100 to 1000 nM | 1000 to 20000 nM | –
2 | Cn1cc(-c2cccc(-c3ncc(-c4cnn(C5CCCC(C(=O)O)C5)c4)cn3)c2)cn1 (mixture of isomers) [Compound 41, Lithium 3-(4-{2-[3-(1-Methyl-1H-pyrazol-4-yl)-phenyl]-pyrimidin-5-yl}-pyrazol-1-yl)-cyclohexanecarboxylate] | 1000 to 20000 nM | 100 to 1000 nM | – | 1000 to 20000 nM
3 | C=CS(=O)(=O)N[C@@H]1CCC[C@H](n2cc(-c3cnc(-c4cccc(-c5cnn(C)c5)c4)nc3)cn2)C1 (racemic) [Compound 33] | < 100 nM | < 100 nM | 100 to 1000 nM | –
4 | Cn1cc(-c2cccc(-c3ncc(-c4cnn([C@H]5CCC[C@H](NCCO)C5)c4)cn3)c2)cn1 (relative stereo) [Compound 2, 2-[Trans-3-(4-{2-[3-(1-Methyl-1H-pyrazol-4-yl)-phenyl]-pyrimidin-5-yl}-pyrazol-1-yl)-cyclohexylamino]-ethanol] | 100 to 1000 nM | < 100 nM | 1000 to 20000 nM | –
5 | Cn1cc(-c2cccc(-c3ncc(-c4cnn([C@H]5CCC[C@H](N6CCOCC6=O)C5)c4)cn3)c2)cn1 (relative stereo) [Compound 3, 4-[Trans-3-(4-{2-[3-(1-Methyl-1H-pyrazol-4-yl)-phenyl]-pyrimidin-5-yl}-pyrazol-1-yl)-cyclohexyl]-morpholin-3-one] | 100 to 1000 nM | < 100 nM | 100 to 1000 nM | –
6 | Cn1cc(-c2cccc(-c3ncc(-c4cnn([C@H]5CCC[C@@H](N6CCOCC6)C5)c4)cn3)c2)cn1 (relative stereo) [Compound 4, 4-[Cis-3-(4-{2-[3-(1-Methyl-1H-pyrazol-4-yl)-phenyl]-pyrimidin-5-yl}-pyrazol-1-yl)-cyclohexyl]-morpholine] | 100 to 1000 nM | < 100 nM | 100 to 1000 nM | –
7 | Cn1cc(-c2cccc(-c3ncc(-c4cnn([C@H]5CCC[C@H](S(C)(=N)=O)C5)c4)cn3)c2)cn1 (relative stereo) [Compound 35] | 100 to 1000 nM | < 100 nM | 1000 to 20000 nM | –
8 | C=CC(=O)N[C@@H]1CCC[C@H](n2cc(-c3cnc(-c4cccc(-c5cnn(C)c5)c4)nc3)cn2)C1 (relative stereo) [Compound 36] | < 100 nM | < 100 nM | 100 to 1000 nM | –
9 | C=CS(=O)(=O)N[C@H]1CCC[C@H](n2cc(-c3cnc(-c4cccc(-c5cnn(C)c5)c4)nc3)cn2)C1 (relative stereo) [Compound 37, Ethenesulfonic acid [Trans-3-(4-{2-[3-(1-methyl-1H-pyrazol-4-yl)-phenyl]-pyrimidin-5-yl}-pyrazol-1-yl)-cyclohexyl]-amide] | < 100 nM | < 100 nM | 100 to 1000 nM | –
10 | Cn1cc(-c2cccc(-c3ncc(-c4cnn([C@@H]5CCC[C@@H](NS(C)(=O)=O)C5)c4)cn3)c2)cn1 (single isomer, unassigned) [Compound 27] | 100 to 1000 nM | < 100 nM | 100 to 1000 nM | –
11 | Cn1cc(-c2cccc(-c3ncc(-c4cnn([C@H]5CCC[C@@H](NS(C)(=O)=O)C5)c4)cn3)c2)cn1 (single isomer, unassigned) [Compound 28] | 100 to 1000 nM | 100 to 1000 nM | 1000 to 20000 nM | –
12 | Cn1cc(-c2cccc(-c3ncc(-c4cnn(C5CCCC(NC(=O)OC(C)(C)C)C5)c4)cn3)c2)cn1 (stereo not drawn) [Compound 9, [3-(4-{2-[3-(1-Methyl-1H-pyrazol-4-yl)-phenyl]-pyrimidin-5-yl}-pyrazol-1-yl)-cyclohexyl]-carbamic acid tert-butyl ester] | < 100 nM | < 100 nM | 1000 to 20000 nM | –
13 | C=CC(=O)N1CCC(n2cc(-c3cnc(-c4cccc(-c5cnn(C)c5)c4)nc3)cn2)CC1 [Compound 10, 1-[4-(4-{2-[3-(1-Methyl-1H-pyrazol-4-yl)-phenyl]-pyrimidin-5-yl}-pyrazol-1-yl)-piperidin-1-yl]-propenone] | 100 to 1000 nM | < 100 nM | 100 to 1000 nM | –
14 | Cn1cc(-c2cccc(-c3ncc(-c4cnn(C5CCCC(N6CCC(F)(F)CC6)C5)c4)cn3)c2)cn1 (stereo not drawn) [Compound 11, 5-{1-[3-(4,4-Difluoro-piperidin-1-yl)-cyclohexyl]-1H-pyrazol-4-yl}-2-[3-(1-methyl-1H-pyrazol-4-yl)-phenyl]-pyrimidine] | 100 to 1000 nM | < 100 nM | 100 to 1000 nM | –
15 | Cn1cc(-c2cccc(-c3ncc(-c4cnn(C5CCC[C@@H](NC6CCOC6)C5)c4)cn3)c2)cn1 (stereo partly drawn) [Compound 12, [3-Cis-(4-{2-[3-(1-Methyl-1H-pyrazol-4-yl)-phenyl]-pyrimidin-5-yl}-pyrazol-1-yl)-cyclohexyl]-(tetrahydro-furan-3-yl)-amine] | < 100 nM | < 100 nM | 100 to 1000 nM | –
16 | C=CC(=O)N1CCCC(n2cc(-c3cnc(-c4cccc(-c5cnn(C)c5)c4)nc3)cn2)C1 (stereo not drawn) [Compound 14, 1-[3-(4-{2-[3-(1-Methyl-1H-pyrazol-4-yl)-phenyl]-pyrimidin-5-yl}-pyrazol-1-yl)-piperidin-1-yl]-propenone] | 100 to 1000 nM | < 100 nM | 100 to 1000 nM | –
17 | C=CC(=O)NC1CCCC(n2cc(-c3cnc(-c4cccc(-c5cnn(C)c5)c4)nc3)cn2)C1 (stereo not drawn) [Compound 15, N-[3-(4-{2-[3-(1-Methyl-1H-pyrazol-4-yl)-phenyl]-pyrimidin-5-yl}-pyrazol-1-yl)-cyclohexyl]-acrylamide] | < 100 nM | < 100 nM | < 100 nM | –
18 | C=CS(=O)(=O)N1CCCC(n2cc(-c3cnc(-c4cccc(-c5cnn(C)c5)c4)nc3)cn2)C1 (stereo not drawn) [Compound 17, 5-[1-(1-Ethenesulfonyl-piperidin-3-yl)-1H-pyrazol-4-yl]-2-[3-(1-methyl-1H-pyrazol-4-yl)-phenyl]-pyrimidine] | < 100 nM | < 100 nM | < 100 nM | –
19 | C=CS(=O)(=O)N1CCC(n2cc(-c3cnc(-c4cccc(-c5cnn(C)c5)c4)nc3)cn2)CC1 [Compound 18, 5-[1-(1-Ethenesulfonyl-piperidin-4-yl)-1H-pyrazol-4-yl]-2-[3-(1-methyl-1H-pyrazol-4-yl)-phenyl]-pyrimidine] | < 100 nM | < 100 nM | < 100 nM | –
20 | Cn1cc(-c2cccc(-c3ncc(-c4cnn(C5CCC[C@@H](S(C)(=N)=O)C5)c4)cn3)c2)cn1 (stereo partly drawn) [Compound 34, imino(methyl)(Cis-3-(4-(2-(3-(1-methyl-1H-pyrazol-4-yl)phenyl)pyrimidin-5-yl)-1H-pyrazol-1-yl)cyclohexyl)-I6-sulfanone] | 100 to 1000 nM | < 100 nM | 1000 to 20000 nM | –
